From ChEMBL document CHEMBL5053508, “Optimization of Beclin 1-Targeting Stapled Peptides by Staple Scanning Leads to Enhanced Antiproliferative Potency in Cancer Cells” (J Med Chem, 2021)
Active and inactive are the calls of the source. The calls are words filed in the database; no cut-off is given here.

Assays:
SK-BR-3 [1] = test: Induction of apoptosis in human SK-BR-3 cells assessed as increase in cleaved PARP expression at 0.15 uM incubated for 48 hrs by western blot analysis; type: functional, cell-based
SK-BR-3 [2] = test: Induction of apoptosis in human SK-BR-3 cells assessed as increase in cleaved caspase-3 expression at 0.15 uM incubated for 48 hrs by western blot analysis; type: functional, cell-based
HEK-293T = test: Cytotoxicity against HEK293T cells assessed as reduction in cell viability at 10 to 20 uM measured after 24 hrs by trypan blue exclusion assay; type: cell-based; settings: human, dose 10-20 µM
SK-BR-3 [3] = test: Antiproliferative activity against human SK-BR-3 cells assessed as reduction in cell growth incubated for 5 days by trypan blue exclusion assay; type: functional, cell-based; settings: time 5.0 day
SK-BR-3 [4] = test: Antiproliferative activity against human SK-BR-3 cells assessed as reduction of cell growth measured after 24 hrs by trypan blue exclusion assay; settings: SK-BR-3, 24 h
Beclin-1 = Beclin-1 (Homo sapiens, UniProt Q14457); test: Binding affinity to Beclin 1 coiled coil domain (unknown origin) by isothermal titration calorimetry assay
Chain of Beclin-1 (Q14457 whole entry, the tested form may be a part): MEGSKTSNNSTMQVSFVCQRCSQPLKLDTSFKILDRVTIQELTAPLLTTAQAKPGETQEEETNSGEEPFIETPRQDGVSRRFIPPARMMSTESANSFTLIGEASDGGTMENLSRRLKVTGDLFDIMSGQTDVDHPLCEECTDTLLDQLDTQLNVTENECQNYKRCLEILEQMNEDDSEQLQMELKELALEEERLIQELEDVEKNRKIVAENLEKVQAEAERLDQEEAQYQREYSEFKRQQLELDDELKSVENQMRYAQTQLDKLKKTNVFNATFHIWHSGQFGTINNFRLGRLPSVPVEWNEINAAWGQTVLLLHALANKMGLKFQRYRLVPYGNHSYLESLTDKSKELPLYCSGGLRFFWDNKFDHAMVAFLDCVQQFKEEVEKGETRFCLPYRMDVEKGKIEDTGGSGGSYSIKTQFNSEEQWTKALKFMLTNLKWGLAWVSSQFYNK

SMILES | Kd (Beclin-1) | Activity (Beclin-1) | also measured
CC(=O)O[C@H]1C(=O)[C@@]2(C)[C@H]([C@H](OC(=O)c3ccccc3)[C@]3(O)C[C@H](OC(=O)[C@H](O)[C@@H](NC(=O)c4ccccc4)c4ccccc4)C(C)=C1C3(C)C)[C@]1(OC(C)=O)CO[C@@H]1C[C@@H]2O |  |  | Activity (SK-BR-3 [1]): Active; Activity (SK-BR-3 [2]): Active
CC[C@H](C)[C@H](NC(=O)[C@@H](NC(=O)[C@H](CCCNC(=N)N)NC(=O)[C@H](CCCNC(=N)N)NC(=O)[C@H](CCCNC(=N)N)NC(=O)[C@H](CCCNC(=N)N)NC(=O)[C@H](CCC(N)=O)NC(=O)[C@H](CCCNC(=N)N)NC(=O)[C@H](CCCNC(=N)N)NC(=O)[C@H](CCCCN)NC(=O)[C@H](CCCCN)NC(=O)[C@H](CCCNC(=N)N)NC(=O)CNC(=O)[C@H](Cc1ccc(O)cc1)NC(C)=O)C(C)C)C(=O)N[C@@H](CCC(N)=O)C(=O)N[C@@H]1CCCCCC/C=C/CCC[C@@H](C(=O)N[C@@H](CCCNC(=N)N)C(=O)N[C@@H](CC(=O)O)C(=O)N[C@H](C(N)=O)C(C)C)NC(=O)[C@H](CCCCN)NC(=O)[C@H](CCC(=O)O)NC(=O)[C@H]([C@@H](C)CC)NC(=O)[C@H]([C@@H](C)CC)NC(=O)[C@H](C(C)C)NC(=O)[C@H](CC(C)C)NC1=O |  |  | Activity (HEK-293T): Non-Toxic; Activity (SK-BR-3 [3]): Dose-dependent effect; IC50 (SK-BR-3 [4]): 13.6 µM
CC[C@H](C)[C@H](NC(=O)[C@H](CC(C)C)NC(=O)[C@H](C)NC(=O)[C@H](CCCNC(=N)N)NC(=O)[C@H](CCCNC(=N)N)NC(=O)[C@H](CCCNC(=N)N)NC(=O)[C@H](CCC(N)=O)NC(=O)[C@H](CCCNC(=N)N)NC(=O)[C@H](CCCNC(=N)N)NC(=O)[C@H](CCCCN)NC(=O)[C@H](CCCCN)NC(=O)[C@H](CCCNC(=N)N)NC(=O)CNC(=O)[C@H](Cc1ccc(O)cc1)NC(C)=O)C(=O)N[C@@H](CCC(N)=O)C(=O)N[C@@H]1CCCCCC/C=C/CCC[C@@H](C(=O)N[C@@H](CCCNC(=N)N)C(=O)N[C@@H](CCCCN)C(=O)N[C@@H](CCCNC(=N)N)C(N)=O)NC(=O)[C@H](CCCCN)NC(=O)[C@H](CCC(=O)O)NC(=O)[C@H](C(C)C)NC(=O)[C@H](CC(=O)O)NC(=O)[C@H](CCC(=O)O)NC(=O)[C@H](CCC(N)=O)NC1=O | 311 µM |  | 
CC[C@H](C)[C@H](NC(=O)[C@H](Cc1ccccc1)NC(=O)[C@H](CCCNC(=N)N)NC(=O)[C@H](CCCNC(=N)N)NC(=O)[C@H](CCCNC(=N)N)NC(=O)[C@H](CCCNC(=N)N)NC(=O)[C@H](CCC(N)=O)NC(=O)[C@H](CCCNC(=N)N)NC(=O)[C@H](CCCNC(=N)N)NC(=O)[C@H](CCCCN)NC(=O)[C@H](CCCCN)NC(=O)[C@H](CCCNC(=N)N)NC(=O)CNC(=O)[C@H](Cc1ccc(O)cc1)NC(C)=O)C(=O)N[C@@H](CCC(N)=O)C(=O)N[C@@H]1CCCCCC/C=C/CCC[C@@H](C(=O)N[C@@H](CCCNC(=N)N)C(=O)N[C@@H](CO)C(=O)N[C@H](C(N)=O)C(C)C)NC(=O)[C@H](CCCCN)NC(=O)[C@H]([C@@H](C)CC)NC(=O)[C@H](C(C)C)NC(=O)[C@H](C(C)C)NC(=O)[C@H](CCC(=O)O)NC(=O)[C@H](CC(C)C)NC1=O |  | inactive | 
CC[C@H](C)[C@H](NC(=O)[C@H](CC(C)C)NC(=O)[C@H](CCCNC(=N)N)NC(=O)[C@H](CCCNC(=N)N)NC(=O)[C@H](CCCNC(=N)N)NC(=O)[C@H](CCCNC(=N)N)NC(=O)[C@H](CCC(N)=O)NC(=O)[C@H](CCCNC(=N)N)NC(=O)[C@H](CCCNC(=N)N)NC(=O)[C@H](CCCCN)NC(=O)[C@H](CCCCN)NC(=O)[C@H](CCCNC(=N)N)NC(=O)CNC(=O)[C@H](Cc1ccc(O)cc1)NC(C)=O)C(=O)N[C@@H](CO)C(=O)N[C@@H](CCC(=O)O)C(=O)N[C@@H](CC(C)C)C(=O)N[C@@H]1CCCCCC/C=C/CCC[C@@H](C(=O)N[C@@H](C)C(N)=O)NC(=O)[C@H](CCCNC(=N)N)NC(=O)[C@H](CCC(N)=O)NC(=O)[C@H](CCCCN)NC(=O)[C@H](CCC(=O)O)NC(=O)[C@H](CCCNC(=N)N)NC(=O)[C@H](CC(=O)O)NC1=O | 3.21 µM |  | 

More lines, main results first:

Kd (Beclin-1) | Activity (Beclin-1) | SMILES | also measured
356 µM |  | CC[C@H](C)[C@H](NC(=O)[C@H](CC(C)C)NC(=O)[C@H](CCCNC(=N)N)NC(=O)[C@H](CCCNC(=N)N)NC(=O)[C@H](CCCNC(=N)N)NC(=O)[C@H](CCCNC(=N)N)NC(=O)[C@H](CCC(N)=O)NC(=O)[C@H](CCCNC(=N)N)NC(=O)[C@H](CCCNC(=N)N)NC(=O)[C@H](CCCCN)NC(=O)[C@H](CCCCN)NC(=O)[C@H](CCCNC(=N)N)NC(=O)CNC(=O)[C@H](Cc1ccc(O)cc1)NC(C)=O)C(=O)N[C@H](C(=O)N[C@@H]1CCCCCC/C=C/CCC[C@@H](C(=O)N[C@@H](CCCNC(=N)N)C(=O)N[C@@H](CCCCN)C(=O)N[C@@H](CCCNC(=N)N)C(N)=O)NC(=O)[C@H](CCCCN)NC(=O)[C@H](CCC(=O)O)NC(=O)[C@H](C(C)C)NC(=O)[C@H](CC(=O)O)NC(=O)[C@H](CCC(=O)O)NC(=O)[C@H](CCC(N)=O)NC1=O)[C@@H](C)CC | 
 | inactive | CC(=O)N[C@@H](Cc1ccc(O)cc1)C(=O)NCC(=O)N[C@@H](CCCNC(=N)N)C(=O)N[C@@H](CCCCN)C(=O)N[C@@H](CCCCN)C(=O)N[C@@H](CCCNC(=N)N)C(=O)N[C@@H](CCCNC(=N)N)C(=O)N[C@@H](CCC(N)=O)C(=O)N[C@@H](CCCNC(=N)N)C(=O)N[C@@H](CCCNC(=N)N)C(=O)N[C@@H](CCCNC(=N)N)C(=O)N[C@@H](CCCNC(=N)N)C(=O)N[C@@H](CC(C)C)C(=O)N[C@@H](CC(C)C)C(=O)N[C@@H](CCC(N)=O)C(=O)N[C@@H]1CCCCCC/C=C/CCC[C@@H](C(=O)N[C@@H](CCCNC(=N)N)C(=O)N[C@@H](CO)C(=O)N[C@H](C(N)=O)C(C)C)NC(=O)[C@H](CCCCN)NC(=O)[C@H](CC(C)C)NC(=O)[C@H](C(C)C)NC(=O)[C@H]([C@@H](C)O)NC(=O)[C@H](CCCCN)NC(=O)[C@H](CC(C)C)NC1=O | 
 | inactive | CC[C@H](C)[C@H](NC(=O)[C@H](CC(C)C)NC(=O)[C@H](CCCNC(=N)N)NC(=O)[C@H](CCCNC(=N)N)NC(=O)[C@H](CCCNC(=N)N)NC(=O)[C@H](CCCNC(=N)N)NC(=O)[C@H](CCC(N)=O)NC(=O)[C@H](CCCNC(=N)N)NC(=O)[C@H](CCCNC(=N)N)NC(=O)[C@H](CCCCN)NC(=O)[C@H](CCCCN)NC(=O)[C@H](CCCNC(=N)N)NC(=O)CNC(=O)[C@H](Cc1ccc(O)cc1)NC(C)=O)C(=O)N[C@@H](CCC(N)=O)C(=O)N[C@@H]1CCCCCC/C=C/CCC[C@@H](C(=O)N[C@@H](CCCNC(=N)N)C(=O)N[C@@H](CCCCN)C(=O)N[C@@H](CCCNC(=N)N)C(N)=O)NC(=O)[C@H](CCCCN)NC(=O)[C@H](CCC(=O)O)NC(=O)[C@H](C(C)C)NC(=O)[C@H](CC(=O)O)NC(=O)[C@H](CCC(=O)O)NC(=O)[C@H](CCCNC(=N)N)NC1=O | 
